# Measured values as given in patent US20100242341A1, “CORROSION AND MICROBIAL CONTROL IN HYDROCARBONACEOUS COMPOSITIONS” (priority 2007, published 2010).
# Experiments:
# Type in all cases: cell-based
# [1] = tested on: Yarrowia tropicalis ATCC# 48138; test: Microbial resistance of fuel, plate count
# Procedure: (§1) Bacteria. Pseudomonas aeruginosa ATCC# 33988, Yeast: Yarrowia tropicalis ATCC# 48138, and Mold: Hormoconis resinae ATCC# 20495, are sub cultured in Bushnell-Haas broth, and used for the mixed inoculum. The organism concentrations in the mixed inoculum are as follows: Ps. aeruginosa-4.8×10^8 cfu/mL; Y. tropicalis-2.2×10^7 cfu/mL; H. resinae-6.3×10^7 cfu/mL
# (§2) Testing is carried out in glass bottles with bakelite screw tops for four weeks. For each fuel sample, the aminoalcohol and then the biocide when present are added at the desired loadings to 130 mL of either diesel or biodiesel fuel with agitation for 5 min. Bushnell-Haas broth (24 mL) is added as the aqueous phase below the diesel fuel. One mL of the mixed inoculum is added. The samples are mixed weekly by turning the bottle upside down 5 times. The organism count listed for day 0 represents the initial organism populations detected in the water bottom after mixing the water bottom and the fuel.
# (§3) Microbial survival is measured using the plate count method. Tryptic soy agar is used for Pseudomonas aeruginosa, and Sabouraud dextrose agar with 0.5 ug/ml gentamycin for Yarrowia tropicalis, and bacteriological grade agar 1.5%, with 0.01% potassium tellurite for Hormoconis resinae. Bacteria are incubated at 37° C. for 48 hours, and fungi at 25° C. for 5-7 days.
# [2] = tested on: Pseudomonas aeruginosa ATCC# 33988; test: Microbial resistance of fuel, plate count
# Procedure: as §1, §2, §3
# [3] = tested on: Hormoconis resinae ATCC# 20495; test: Microbial resistance of fuel, plate count
# Procedure: as §1, §2, §3
# [4] = tested on: mixed inoculum (Ps. aeruginosa, Y. tropicalis, H. resinae); test: Microbial resistance of fuel, mixed inoculum (overall statements); conditions: diesel fuel
# Procedure: as §1, §2, §3
# [5] = biodiesel, 3A40 1500 ppm, Week 1
# [6] = biodiesel, 3A40 1500 ppm, Week 2
# [7] = biodiesel, 3A40 1500 ppm, Week 3
# [8] = biodiesel, 3A40 1500 ppm, Week 4
# [9] = biodiesel, 3A40 3000 ppm, Week 1
# [10] = biodiesel, 3A40 3000 ppm, Week 2
# [11] = biodiesel, 3A40 3000 ppm, Week 3
# [12] = biodiesel, 3A40 3000 ppm, Week 4
# [13] = diesel, aminoalcohol 1500 ppm, Day 0
# [14] = diesel, aminoalcohol 1500 ppm, Wk 1
# [15] = diesel, aminoalcohol 1500 ppm, Wk 2
# [16] = diesel, aminoalcohol 1500 ppm, Wk 3
# [17] = diesel, aminoalcohol 1500 ppm, Wk 4
# [18] = diesel, aminoalcohol 3000 ppm, Day 0
# [19] = diesel, aminoalcohol 3000 ppm, Wk 1
# [20] = diesel, aminoalcohol 3000 ppm, Wk 2
# [21] = diesel, aminoalcohol 3000 ppm, Wk 3
# [22] = diesel, aminoalcohol 3000 ppm, Wk 4
compound,measurement,setting,value
"CCCCC(O)C(N)CC (centres unmarked) [Example 3A4O, 3-amino-4-octanol]",Y. tropicalis count,[1]; [5],<1.0E2
same,Y. tropicalis count,[1]; [6],<1.0E2
same,Y. tropicalis count,[1]; [7],<1.0E2
same,Y. tropicalis count,[1]; [8],<1.0E2
same,Y. tropicalis count,[1]; [9],<1.0E2
same,Y. tropicalis count,[1]; [10],<1.0E2
same,Y. tropicalis count,[1]; [11],<1.0E2
same,Y. tropicalis count,[1]; [12],<1.0E2
same,synergy with biocide,"[1]; diesel fuel, with BIT, Y. tropicalis",evident
same,Y. tropicalis count,[1]; [13],3.3E5
same,Y. tropicalis count,[1]; [14],1.1E5
same,Y. tropicalis count,[1]; [15],8.0E5
same,Y. tropicalis count,[1]; [16],2.2E6
same,Y. tropicalis count,[1]; [17],8.3E6
same,Y. tropicalis count,[1]; [18],3.3E5
same,Y. tropicalis count,[1]; [19],2.0E5
same,Y. tropicalis count,[1]; [20],6.3E5
same,Y. tropicalis count,[1]; [21],3.0E6
same,Y. tropicalis count,[1]; [22],1.2E7
same,Ps. aeruginosa count,[2]; [5],<1.0E2
same,Ps. aeruginosa count,[2]; [6],<1.0E2
same,Ps. aeruginosa count,[2]; [7],<1.0E2
same,Ps. aeruginosa count,[2]; [8],<1.0E2
same,Ps. aeruginosa count,[2]; [9],<1.0E2
same,Ps. aeruginosa count,[2]; [10],<1.0E2
same,Ps. aeruginosa count,[2]; [11],<1.0E2
same,Ps. aeruginosa count,[2]; [12],<1.0E2
same,synergy with biocide,"[2]; diesel fuel, with BIT, against Ps. Aeruginosa (FIG. 3)",not significant
same,Ps. aeruginosa count,[2]; [13],1.4E6
same,Ps. aeruginosa count,[2]; [14],1.7E6
same,Ps. aeruginosa count,[2]; [15],4.2E6
same,Ps. aeruginosa count,[2]; [16],7.3E6
same,Ps. aeruginosa count,[2]; [17],4.8E7
same,Ps. aeruginosa count,[2]; [18],1.4E6
same,Ps. aeruginosa count,[2]; [19],8.7E5
same,Ps. aeruginosa count,[2]; [20],2.0E6
same,Ps. aeruginosa count,[2]; [21],5.7E6
same,Ps. aeruginosa count,[2]; [22],2.3E7
same,H. resinae count,[3]; [5],<1.0E2
same,H. resinae count,[3]; [6],<1.0E2
same,H. resinae count,[3]; [7],<1.0E2
same,H. resinae count,[3]; [8],<1.0E2
same,H. resinae count,[3]; [9],<1.0E2
same,H. resinae count,[3]; [10],<1.0E2
same,H. resinae count,[3]; [11],<1.0E2
same,H. resinae count,[3]; [12],<1.0E2
same,H. resinae count,[3]; [13],4.2E5
same,H. resinae count,[3]; [14],2.7E5
same,H. resinae count,[3]; [15],3.8E5
same,H. resinae count,[3]; [16],7.7E5
same,H. resinae count,[3]; [17],4.4E6
same,H. resinae count,[3]; [18],4.2E5
same,H. resinae count,[3]; [19],3.5E5
same,H. resinae count,[3]; [20],6.7E5
same,H. resinae count,[3]; [21],8.2E5
same,H. resinae count,[3]; [22],6.0E6
same,synergy with biocide,[4]; with FUELSAVER (FIG. 1),particularly synergistic
same,synergy with biocide,[4]; with Kathon (CMIT/MIT) (FIG. 2),more evident early on in the testing and then appears to taper off with time
same,synergy with biocide,[4]; with the three biocides evaluated,"Synergy, however, is observed"
"CC(C)(N)CO [AMP, 2-Amino-2-methyl-1-propanol, reference compound]",Y. tropicalis count,[1]; [13],3.3E5
same,Y. tropicalis count,[1]; [14],1.3E5
same,Y. tropicalis count,[1]; [15],7.2E5
same,Y. tropicalis count,[1]; [16],1.3E6
same,Y. tropicalis count,[1]; [17],7.0E6
same,Y. tropicalis count,[1]; [18],3.3E5
same,Y. tropicalis count,[1]; [19],9.0E4
same,Y. tropicalis count,[1]; [20],2.3E5
same,Y. tropicalis count,[1]; [21],5.2E5
same,Y. tropicalis count,[1]; [22],4.3E6
same,Ps. aeruginosa count,[2]; [13],1.4E6
same,Ps. aeruginosa count,[2]; [14],8.7E5
same,Ps. aeruginosa count,[2]; [15],2.3E6
same,Ps. aeruginosa count,[2]; [16],4.4E6
same,Ps. aeruginosa count,[2]; [17],1.2E7
same,Ps. aeruginosa count,[2]; [18],1.4E6
same,Ps. aeruginosa count,[2]; [19],2.2E6
same,Ps. aeruginosa count,[2]; [20],4.0E6
same,Ps. aeruginosa count,[2]; [21],6.0E6
same,Ps. aeruginosa count,[2]; [22],4.2E7
same,H. resinae count,[3]; [13],4.2E5
same,H. resinae count,[3]; [14],3.0E5
same,H. resinae count,[3]; [15],6.4E5
same,H. resinae count,[3]; [16],7.4E5
same,H. resinae count,[3]; [17],1.8E6
same,H. resinae count,[3]; [18],4.2E5
same,H. resinae count,[3]; [19],1.2E5
same,H. resinae count,[3]; [20],4.5E5
same,H. resinae count,[3]; [21],5.8E5
same,H. resinae count,[3]; [22],3.3E6
